This is an account of results in patent US20170022258A1, “PEPTIDES FOR USE IN THE TREATMENT OF IL-1 RELATED DISEASES AND CONDITIONS” (C4M PHARMACEUTICALS PTY LTD., priority 2011, published 2017).

One may read the IC50 as the point on the concentration scale where inhibition reaches its midpoint.

Non-standard residues stand in square brackets, D forms with d. Residues, ends and D or L forms follow the SMILES beside them. No end group written: not given here. Some results are limits rather than exact numbers.

The test system of test [1] is IL-1 stimulation of IL-8 in human skin fibroblasts. In words: Inhibition of IL-1 induced IL-8 in human fibroblasts. It counts as cell-based. The settings on record: inhibition of IL-1 stimulation of IL-8 in human skin fibroblasts; average of three measurements and standard error; read-out: Binding (IC50 nM). The method, then: Inhibition of IL-1 induced IL-8 in human fibroblasts was determined using normal human dermal fibroblast cells cultured in DMEM with 10% fetal calf serum in 48-well plates.
Twenty-four hours before initiation of the experiment, the medium was changed to DMEM with 0.2% fetal calf serum. Each peptide was added to confluent cells, which were then pulsed for 30 min with rIL-I,B (which was obtained from R & D Systems) at 50 pg/ml. The cells were washed four times with PBS, and fresh DMEM/0.2% fetal calf serum was added to each well. After 5 hr of incubation, the culture media were collected and analyzed by ELISA for IL-8 (which was obtained from R & D Systems). Maximal activation, with IL-1 only, was 2530±13 pg/ml of IL-8. Nonspecific activation, determined in the presence of 1000-fold excess IL-1Ra, was 30±9 pg/ml of IL-8 (n=3).

For test [2], the target named is T1, IL-1 receptor (Homo sapiens, UniProt P14778).
T1 construct: confluent human monocytes, which express the IL-1 receptor; endogenous in cells; host or cells: human monocytes
T1 sequence (P14778 18-569): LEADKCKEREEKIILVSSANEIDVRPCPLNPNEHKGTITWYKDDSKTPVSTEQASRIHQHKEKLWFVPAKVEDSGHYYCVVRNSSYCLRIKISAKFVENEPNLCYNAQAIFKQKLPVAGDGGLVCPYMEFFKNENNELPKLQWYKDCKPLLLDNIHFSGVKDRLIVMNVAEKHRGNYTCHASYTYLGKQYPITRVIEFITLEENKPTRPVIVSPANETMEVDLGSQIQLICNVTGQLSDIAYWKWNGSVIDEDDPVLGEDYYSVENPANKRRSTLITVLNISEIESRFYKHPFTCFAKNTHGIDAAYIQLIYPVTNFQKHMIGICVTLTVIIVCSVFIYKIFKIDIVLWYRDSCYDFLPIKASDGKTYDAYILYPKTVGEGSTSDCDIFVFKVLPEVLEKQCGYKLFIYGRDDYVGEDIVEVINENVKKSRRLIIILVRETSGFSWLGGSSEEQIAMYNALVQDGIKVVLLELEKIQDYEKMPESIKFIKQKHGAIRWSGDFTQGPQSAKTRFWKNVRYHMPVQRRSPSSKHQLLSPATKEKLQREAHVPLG
Briefly: Radioligand competition binding assay (125I-labeled IL-1α) on human monocytes. Conditions: IL-1 binding antagonism on human monocytes; average of three measurements and standard error. As for the experimental part: Radioligand competition binding assays were performed in 96-well plates containing confluent human monocytes, which express the IL-1 receptor. Wells were washed three times with binding buffer, and binding buffer was placed in each well. Peptides were resuspended in dimethyl sulfoxide at 20 mM and diluted in binding buffer to the desired starting concentration. Using a Beckman robotic system, five 3-fold dilutions were prepared, and peptide solution was transferred to duplicate receptor-containing wells. To each well, radioactive ^125Iodine-labeled IL-Ia (Amersham) was added to a final concentration of 40 pM, and the plates were placed on a shaking platform at 4° C. for 2 hr. Plates were washed with PBS using a plate washer, and bound ^125I-labeled IL-la was eluted for 10 min with 0.1 M NaOH and counted in a gamma counter. IC50 values were determined by fitting the data to a two-parameter logistic equation. In all cases, nonspecific binding was determined by the addition of 3 μM of recombinant IL-Ia.
A general note: Displacement assays read how much labelled ligand stays bound in the presence of the test substance.

For test [3], the target named is T2, IL-1 receptor (IL-1R) expressed on human monocytes (human, UniProt P14778 18-569).
T2 sequence (looked up): T1 sequence (P14778 18-569)
In words: cell-based or functional assay.

Test [4] deals with IL-1 receptor (IL-1R) expressed on human monocytes (human) (UniProt P14778). Briefly: cell-based or functional assay.

As to `CC(=O)N[C@H](CC(C)C)C(=O)N1CCC[C@@H]1C(=O)N[C@H](CC(C)C)C(=O)N[C@H](C)C(=O)N[C@H](Cc1ccc(O)cc1)C(=O)N1CCC[C@@H]1C(=O)N[C@H](CCC(N)=O)C(=O)N[C@H](Cc1c[nH]c2ccccc12)C(=O)N[C@H](Cc1ccc(O)cc1)C(=O)N[C@H](Cc1ccc(O)cc1)C(=O)N[C@H](C)C(=O)N[C@H](CC(N)=O)C(=O)N[C@H](CO)C(=O)N[C@H](CCC(=O)O)C(=O)N[C@H](CCC(=O)O)C(=O)N[C@H](Cc1c[nH]c2ccccc12)C(=O)N[C@@H](C(=O)N[C@H](Cc1ccccc1)C(=O)O)[C@H](C)O` [SEQ ID NO. 16, Ac-LPLAYPQWYYANSEEWTF] (Ac-[dL][dP][dL][dA][dY][dP][dQ][dW][dY][dY][dA][dN][dS][dE][dE][dW][dT][dF]-OH; C-terminus assumed), the IC50 in test [1] stood at 120 nM.

As to `CC(=O)N[C@H](CC(C)C)C(=O)N1CCC[C@@H]1C(=O)N[C@H](CC(C)C)C(=O)N[C@H](C)C(=O)N[C@H](Cc1ccc(O)cc1)C(=O)N1CCC[C@@H]1C(=O)N[C@H](CCC(N)=O)C(=O)N[C@H](Cc1c[nH]c2ccccc12)C(=O)N[C@H](Cc1ccc(O)cc1)C(=O)NCC(=O)N1CCC[C@@H]1C(=O)N[C@@H](C(=O)N[C@H](Cc1c[nH]c2ccccc12)C(=O)N[C@H](CCC(=O)O)C(=O)N[C@H](Cc1ccccc1)C(=O)N[C@H](CO)C(=O)N[C@H](CO)C(=O)N[C@@H](C(=O)N[C@H](CC(N)=O)C(=O)N[C@H](C)C(=O)N[C@@H](C(=O)O)[C@H](C)O)C(C)C)[C@H](C)O` [SEQ ID NO. 18], the IC50 in test [1] was 810 nM.

`CC(=O)N[C@H](C(=O)N[C@@H](C)C(=O)N[C@@H](CC(N)=O)C(=O)N[C@H](C(=O)N[C@@H](CO)C(=O)N[C@@H](CO)C(=O)N[C@@H](Cc1ccccc1)C(=O)N[C@@H](CCC(=O)O)C(=O)N[C@@H](Cc1c[nH]c2ccccc12)C(=O)N[C@H](C(=O)N1CCC[C@H]1C(=O)NCC(=O)N[C@@H](Cc1ccc(O)cc1)C(=O)N[C@@H](Cc1c[nH]c2ccccc12)C(=O)N[C@@H](CCC(N)=O)C(=O)N1CCC[C@H]1C(=O)N[C@@H](Cc1ccc(O)cc1)C(=O)N[C@@H](C)C(=O)N[C@@H](CC(C)C)C(=O)N1CCC[C@H]1C(=O)N[C@@H](CC(C)C)C(=O)O)[C@@H](C)O)C(C)C)[C@@H](C)O` [SEQ ID NO. 17] (Ac-TANVSSFEWTPGYWQPYALPL-OH; C-terminus assumed): in test [1], the IC50 came to 76 nM.

Regarding `CC(=O)N[C@H](CC(C)C)C(=O)N1CCC[C@@H]1C(=O)N[C@H](CC(C)C)C(=O)N[C@H](C)C(=O)N[C@H](Cc1ccc(O)cc1)C(=O)N1CCC[C@@H]1C(=O)N[C@H](CCC(N)=O)C(=O)N[C@H](Cc1c[nH]c2ccccc12)C(=O)N[C@H](Cc1ccc(O)cc1)C(=O)N[C@H](CCCNC(=N)N)C(=O)N[C@H](CCC(=O)O)C(=O)NCC(=O)N[C@H](CO)C(=O)N[C@H](CCC(N)=O)C(=O)N[C@H](CCCNC(=N)N)C(=O)N[C@H](Cc1c[nH]c2ccccc12)C(=O)N[C@H](CCCNC(=N)N)C(=O)N[C@H](CC(=O)O)C(=O)N[C@H](Cc1ccc(O)cc1)C(=O)NCC(=O)N[C@H](CC(=O)O)C(=O)O` [SEQ ID NO. 21] (Ac-[dL][dP][dL][dA][dY][dP][dQ][dW][dY][dR][dE]G[dS][dQ][dR][dW][dR][dD][dY]G[dD]-OH; C-terminus assumed), the concentration for half-maximal inhibition (IC50) in test [1] amounted to 730 nM.

For `CC(=O)N[C@@H](CC(N)=O)C(=O)N[C@@H](CC(N)=O)C(=O)N[C@@H](CCC(N)=O)C(=O)N[C@@H](CC(C)C)C(=O)N[C@H](C(=O)N[C@@H](C)C(=O)NCC(=O)N[C@@H](Cc1ccc(O)cc1)C(=O)N[C@@H](CC(C)C)C(=O)N[C@@H](CCC(N)=O)C(=O)NCC(=O)N1CCC[C@H]1C(=O)N[C@@H](CC(N)=O)C(=O)N[C@H](C(=O)N[C@@H](CC(N)=O)C(=O)O)C(C)C)C(C)C` [SEQ ID NO. 7, Ac-NNQLVAGYLQGPNVN] (Ac-NNQLVAGYLQGPNVN-OH; C-terminus assumed), the IC50 in test [2] was > 10000 nM.

As for `CC(=O)N[C@@H](CC(=O)O)C(=O)NCC(=O)N[C@@H](Cc1ccc(O)cc1)C(=O)N[C@@H](CC(=O)O)C(=O)N[C@@H](CCCNC(=N)N)C(=O)N[C@@H](Cc1c[nH]c2ccccc12)C(=O)N[C@@H](CCCNC(=N)N)C(=O)N[C@@H](CCC(N)=O)C(=O)N[C@@H](CO)C(=O)NCC(=O)N[C@@H](CCC(=O)O)C(=O)N[C@@H](CCCNC(=N)N)C(=O)N[C@@H](Cc1ccc(O)cc1)C(=O)N[C@@H](Cc1c[nH]c2ccccc12)C(=O)N[C@@H](CCC(N)=O)C(=O)N1CCC[C@H]1C(=O)N[C@@H](Cc1ccc(O)cc1)C(=O)N[C@@H](C)C(=O)N[C@@H](CC(C)C)C(=O)N1CCC[C@H]1C(=O)N[C@@H](CC(C)C)C(=O)O` [SEQ ID NO. 20] (Ac-DGYDRWRQSGERYWQPYALPL-OH; C-terminus assumed), in test [1], the half-inhibitory concentration (IC50) came out at 19 nM.

Regarding `CC[C@H](C)[C@H](NC(=O)[C@H](CC(N)=O)NC(=O)[C@@H](NC(=O)[C@H](C)NC(=O)[C@H](CCC(=O)O)NC(=O)[C@H](CC(C)C)NC(=O)[C@H](CCC(N)=O)NC(=O)[C@H](CC(C)C)NC(C)=O)C(C)C)C(=O)N[C@H](C(=O)N[C@@H](CC(=O)O)C(=O)N[C@@H](CC(C)C)C(=O)N[C@@H](CO)C(=O)N[C@@H](CCC(=O)O)C(=O)N[C@@H](CC(N)=O)C(=O)N[C@@H](CCCNC(=N)N)C(=O)N[C@@H](CCCCN)C(=O)N[C@@H](CCC(N)=O)C(=O)N[C@@H](CC(=O)O)C(=O)N[C@@H](CCCCN)C(=O)O)[C@@H](C)O` [SEQ ID NO. 11, Ac-LQLEAVNITDLSENRKQDK] (Ac-LQLEAVNITDLSENRKQDK-OH; C-terminus assumed), the IC50 in test [2] was > 10000 nM.

Take `CC[C@H](C)[C@H](NC(C)=O)C(=O)N[C@@H](CC(=O)O)C(=O)N[C@H](C(=O)N[C@H](C(=O)N1CCC[C@H]1C(=O)N[C@H](C(=O)N[C@@H](CCC(=O)O)C(=O)N[C@@H](C)C(=O)N1CCC[C@H]1C(=O)N[C@@H](Cc1c[nH]cn1)C(=O)N[C@@H](C)C(=O)N[C@@H](CC(C)C)C(=O)N[C@@H](Cc1ccccc1)C(=O)N[C@@H](CC(C)C)C(=O)NCC(=O)N[C@H](C(=O)N[C@@H](Cc1c[nH]cn1)C(=O)NCC(=O)NCC(=O)N[C@@H](CCCCN)C(=O)O)[C@@H](C)CC)[C@@H](C)CC)C(C)C)C(C)C` [SEQ ID NO. 9] (Ac-IDVVPIEAPHALFLGIHGGK-OH; C-terminus assumed): the IC50 in test [2] is > 10000 nM.

Consider `CC(=O)N[C@@H](Cc1ccccc1)C(=O)N[C@H](C(=O)N[C@@H](Cc1c[nH]c2ccccc12)C(=O)N[C@@H](CCC(=O)O)C(=O)N[C@@H](CCC(=O)O)C(=O)N[C@@H](CO)C(=O)N[C@@H](CC(N)=O)C(=O)N[C@@H](C)C(=O)N[C@@H](Cc1ccc(O)cc1)C(=O)N[C@@H](Cc1ccc(O)cc1)C(=O)N[C@@H](Cc1c[nH]c2ccccc12)C(=O)N[C@@H](CCC(N)=O)C(=O)N1CCC[C@H]1C(=O)N[C@@H](Cc1ccc(O)cc1)C(=O)N[C@@H](C)C(=O)N[C@@H](CC(C)C)C(=O)N1CCC[C@H]1C(=O)N[C@@H](CC(C)C)C(=O)O)[C@@H](C)O` [SEQ ID NO. 15, Ac-FTWEESNAYYWQPYALPL] (Ac-FTWEESNAYYWQPYALPL-OH; C-terminus assumed), for which, in test [1], the IC50 was determined as 16 nM.

As for Ac-ETPFTWEESNAYYWQPYALPL (also called peptide 13) [peptide of SEQ ID NO: 13 (Ac-ETPFTWEESNAYYWQPYALPL)], the “IC50, in vitro inhibition of IL-1 stimulation of IL-8 in human skin fibroblasts (rIL-1β 50 pg/ml, IL-8 ELISA)” value in test [3] came out at 11 nM.

Ac-[dK][dD][dQ][dK][dR][dN][dE][dS][dL][dD][dT][dI][dN][dV][dA][dE][dL][dQ][dL] [peptide of SEQ ID NO: 12 (Ac-KDQKRNESLDTINVAELQL, D-amino acids)]: the “IC50, in vitro inhibition of IL-1 stimulation of IL-8 in human skin fibroblasts (rIL-1β 50 pg/ml, IL-8 ELISA)” value in test [3] was > 10000 nM.

Ac-[dL][dP][dL][dA][dY][dP][dQ][dW][dY][dY][dA][dN][dS][dE][dE][dW][dT][dF][dP][dT][dE] [peptide of SEQ ID NO: 14 (Ac-…, D-amino acids)] returned an IC50, in vitro inhibition of IL-1 stimulation of IL-8 in human skin fibroblasts (rIL-1β 50 pg/ml, IL-8 ELISA) in test [4] of 11 nM.
